Data: patent publication US9555014B2, “Therapeutic regimens” (Radius Health, Inc., priority 2010, dated 2017)
Counter-ions that a name gives are not always drawn. Like-named read-outs stand apart in the source and are kept apart here.

Test: Phase 2a study: trough and peak plasma drug levels
Assay type: in vivo, human (postmenopausal women)
Conditions: for concentration at 8 day / concentration at 15 day / concentration at 29 day: female, human, plasma; for concentration at 29 day: Day 29, ITT
Text: This is a randomized, placebo-controlled, double-blind, parallel-group, Phase 2, multi-center, dose-finding study to evaluate the effects of (R)-6-(2-(ethyl(4-(2-(ethylamino)ethyl)benzyl)amino)-4-methoxyphenyl)-5,6,7,8-tetrahydronaphthalen-2-ol dihydrochloride in the treatment of vasomotor symptoms in postmenopausal women.
A total of 100 eligible patients will be randomized to receive one of 5 blinded treatment regimens. (R)-6-(2-(ethyl(4-(2-(ethylamino)ethyl)benzyl)amino)-4-methoxyphenyl)-5,6,7,8-tetrahydronaphthalen-2-ol dihydrochloride at doses 0, 10, 25, 50 or 100 mg will be dosed for 28-days.
(R)-6-(2-(ethyl(4-(2-(ethylamino)ethyl)benzyl)amino)-4-methoxyphenyl)-5,6,7,8-tetrahydronaphthalen-2-ol dihydrochloride was provided by sponsor in capsule form for oral administration. All doses (0, 10, 25, 50 and 100 mg) were provided as identical presentations. Each patient was provided with 2 containers of 28-capsules each at the start of treatment and took one capsule from each container every day for 28-days. Placebo contained the same excipients as active medication, but without (R)-6-(2-(ethyl(4-(2-(ethylamino)ethyl)benzyl)amino)-4-methoxyphenyl)-5,6,7,8-tetrahydronaphthalen-2-ol dihydrochloride. The patients were instructed to take the capsules orally in the fasted state (morning).
All efficacy endpoints were to be analyzed for the ITT and PP populations, with the exception of the drug levels (analyzed for the ITT population only). Safety endpoints were to be analyzed for the Safety/ITT population.
Values for ranges of steady state trough levels and steady state Cmax can be derived from Tables 4 and 5. Steady state values are the values listed for days 8 and 15. The ranges were derived from the mean number listed in the table plus or minus one standard deviation (the number in parenthesis after each mean value). For example a steady state trough level ranging from 0.11 ng/mL to 0.79 ng/mL is derived from Table 4 by taking the trough level for 10 mg, 0.45 ng/mL, adding 0.34 to get the upper value of 0.79 and subtracting 0.34 to get the lover value of 0.11. Other ranges for steady state trough levels and ranges for Cmax can be similarly derived from the data in Tables 4 and 5.

- Peak Level of drug (10 mg daily PO, Day 1, ITT, mean (SD)): 0.56 (0.34) ng/mL
- Peak Level of drug (10 mg daily PO, Day 8, ITT, mean (SD)): 0.92 (0.52) ng/mL
- Peak Level of drug (10 mg daily PO, Day 15, ITT, mean (SD)): 0.92 (0.69) ng/mL
- Peak Level of drug (25 mg daily PO, Day 1, ITT, mean (SD)): 1.41 (0.63) ng/mL
- Peak Level of drug (25 mg daily PO, Day 8, ITT, mean (SD)): 2.53 (0.74) ng/mL
- Peak Level of drug (25 mg daily PO, Day 15, ITT, mean (SD)): 2.97 (1.09) ng/mL
- Peak Level of drug (50 mg daily PO, Day 1, ITT, mean (SD)): 2.83 (1.72) ng/mL
- Peak Level of drug (50 mg daily PO, Day 8, ITT, mean (SD)): 6.36 (2.58) ng/mL
- Peak Level of drug (50 mg daily PO, Day 15, ITT, mean (SD)): 6.22 (3.46) ng/mL
- Peak Level of drug (100 mg daily PO, Day 1, ITT, mean (SD)): 8.39 (4.04) ng/mL
- Peak Level of drug (100 mg daily PO, Day 8, ITT, mean (SD)): 15.47 (7.14) ng/mL
- Peak Level of drug (100 mg daily PO, Day 15, ITT, mean (SD)): 12.76 (5.28) ng/mL
- concentration at 8 day (oral, 10 mg, derived from Table 4 (0.45 ± 0.34, Day 8), read-out: steady state trough level range (mean plus or minus one standard deviation)): 0.11 to 0.79 ng/mL
- concentration at 8 day (10 mg daily PO, Day 8, ITT, mean (SD), read-out: Mean Trough Level of Drug): 0.45 ng/mL
- concentration at 15 day (10 mg daily PO, Day 15, ITT, mean (SD), read-out: Mean Trough Level of Drug): 0.49 ng/mL
- concentration at 29 day (10 mg daily PO, mean (SD), read-out: Mean Trough Level of Drug): 0.34 ng/mL
- concentration at 8 day (25 mg daily PO, Day 8, ITT, mean (SD), read-out: Mean Trough Level of Drug): 1.33 ng/mL
- concentration at 15 day (25 mg daily PO, Day 15, ITT, mean (SD), read-out: Mean Trough Level of Drug): 1.49 ng/mL
- concentration at 29 day (25 mg daily PO, mean (SD), read-out: Mean Trough Level of Drug): 1.18 ng/mL
- concentration at 8 day (50 mg daily PO, Day 8, ITT, mean (SD), read-out: Mean Trough Level of Drug): 3.11 ng/mL
- concentration at 15 day (50 mg daily PO, Day 15, ITT, mean (SD), read-out: Mean Trough Level of Drug): 3.39 ng/mL
- concentration at 29 day (50 mg daily PO, mean (SD), read-out: Mean Trough Level of Drug): 3.23 ng/mL
- concentration at 8 day (100 mg daily PO, Day 8, ITT, mean (SD), read-out: Mean Trough Level of Drug): 6.91 ng/mL
- concentration at 15 day (100 mg daily PO, Day 15, ITT, mean (SD), read-out: Mean Trough Level of Drug): 6.66 ng/mL
- concentration at 29 day (100 mg daily PO, mean (SD), read-out: Mean Trough Level of Drug): 6.03 ng/mL
Structure (SMILES): CCNCCc1ccc(CN(CC)c2cc(OC)ccc2[C@@H]2CCc3cc(O)ccc3C2)cc1 [drug, (R)-6-(2-(ethyl(4-(2-(ethylamino)ethyl)benzyl)amino)-4-methoxyphenyl)-5,6,7,8-tetrahydronaphthalen-2-ol dihydrochloride]
